From ChEMBL document CHEMBL1129172, “Synthesis of water soluble prodrug of DMP323” (Bioorg Med Chem Lett, 1996)
Values after ≈ are worked out from the molar mass of the structure shown.

How the values were obtained:
[1] = Compound was evaluated for oral bioavailability in dogs; 37-38 %; format: ADME, organism-based, Canis lupus familiaris; conditions: dog, in vivo
[2] = Solubility in water.; format: physicochemical; conditions: read-out: S

bioavailability [1]: 38%
solubility [2]: 10 µg/mL (≈ 17.6 µM)
SMILES: O=C1N(Cc2ccc(CO)cc2)[C@H](Cc2ccccc2)[C@H](O)[C@@H](O)[C@@H](Cc2ccccc2)N1Cc1ccc(CO)cc1 [DMP-323]
